Measured values published in PubChem BioAssay (NCI).
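Assay format: 96-well plates, 48-hour exposure. GI50 = concentration required for 50% inhibition of growth. TGI: concentration producing complete growth inhibition.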

How the values were obtained:
Assay in all cases: growth of human tumour cells (NCI), 48 h
RPMI-8226 leukemia = test system: RPMI-8226 leukemia
SK-MEL-28 melanoma = test system: SK-MEL-28 melanoma
SNB-75 CNS = test system: SNB-75 CNS
MDA-MB-435 = test system: MDA-MB-435
SF-268 CNS = test system: SF-268 CNS
T-47D breast = test system: T-47D breast
A549 NSCLC = test system: A549 NSCLC
EKVX NSCLC = test system: EKVX NSCLC
786-0 renal = test system: 786-0 renal
SNB-19 CNS = test system: SNB-19 CNS
RXF 393 renal = test system: RXF 393 renal
CAKI-1 renal = test system: CAKI-1 renal
NCI-H226 lung = test system: NCI-H226 lung
MCF7 breast = test system: MCF7 breast
OVCAR-5 ovarian = test system: OVCAR-5 ovarian
DU-145 prostate = test system: DU-145 prostate
M14 melanoma = test system: M14 melanoma
SW-620 colon = test system: SW-620 colon
SR leukemia = test system: SR leukemia
PC-3 prostate = test system: PC-3 prostate
SK-MEL-5 melanoma = test system: SK-MEL-5 melanoma
KM12 colon = test system: KM12 colon
HOP-62 NSCLC = test system: HOP-62 NSCLC
NCI/ADR-RES ovarian = test system: NCI/ADR-RES ovarian
CCRF-CEM leukemia = test system: CCRF-CEM leukemia
MDA-MB-231 breast = test system: MDA-MB-231 breast
LOX IMVI melanoma = test system: LOX IMVI melanoma
A498 renal = test system: A498 renal
SF-539 CNS = test system: SF-539 CNS
HL-60(TB) leukemia = test system: HL-60(TB) leukemia
ACHN renal = test system: ACHN renal
SN12C renal = test system: SN12C renal
HS 578T breast = test system: HS 578T breast
SK-OV-3 ovarian = test system: SK-OV-3 ovarian
MOLT-4 leukemia = test system: MOLT-4 leukemia
OVCAR-8 ovarian = test system: OVCAR-8 ovarian
NCI-H23 lung = test system: NCI-H23 lung
UACC-62 melanoma = test system: UACC-62 melanoma
NCI-H522 lung = test system: NCI-H522 lung
SF-295 CNS = test system: SF-295 CNS
U251 CNS = test system: U251 CNS
HCT-15 colon = test system: HCT-15 colon
IGROV1 ovarian = test system: IGROV1 ovarian
SK-MEL-2 melanoma = test system: SK-MEL-2 melanoma
UO-31 renal = test system: UO-31 renal
NCI-H460 lung = test system: NCI-H460 lung
HCC-2998 colon = test system: HCC-2998 colon
K-562 leukemia = test system: K-562 leukemia
OVCAR-3 ovarian = test system: OVCAR-3 ovarian
BT-549 breast = test system: BT-549 breast
OVCAR-4 ovarian = test system: OVCAR-4 ovarian
HOP-92 NSCLC = test system: HOP-92 NSCLC
HCT-116 colon = test system: HCT-116 colon

`Cc1ccc(S(=O)(=O)c2nc(-c3ccc(F)cc3)oc2S(C)(=O)=O)cc1` showed a GI50 (RPMI-8226 leukemia) of over 100 µM, a TGI (RPMI-8226 leukemia) of over 100 µM and a GI50 (SK-MEL-28 melanoma) of over 100 µM. For the same compound, the TGI (SK-MEL-28 melanoma) was over 100 µM, the GI50 (SNB-75 CNS) was over 23.5 µM and the TGI (SNB-75 CNS) was over 100 µM. It also gave a GI50 (MDA-MB-435) of 13.7 µM, a TGI (MDA-MB-435) of over 100 µM and a GI50 (SF-268 CNS) of over 35 µM. For the same compound, the TGI (SF-268 CNS) was over 100 µM, the GI50 (T-47D breast) was 1.73 µM and the TGI (T-47D breast) was 3.67 µM. It also gave a GI50 (A549 NSCLC) of over 100 µM, a TGI (A549 NSCLC) of over 100 µM and a GI50 (EKVX NSCLC) of over 100 µM. The TGI (EKVX NSCLC) was over 100 µM, the GI50 (786-0 renal) was over 100 µM and the TGI (786-0 renal) was over 100 µM. For the same compound, the GI50 (SNB-19 CNS) was over 77.6 µM, the TGI (SNB-19 CNS) was over 100 µM and the GI50 (RXF 393 renal) was 5.16 µM. The TGI (RXF 393 renal) was over 100 µM, the GI50 (CAKI-1 renal) was 4.83 µM and the TGI (CAKI-1 renal) was over 100 µM. It also gave a GI50 (NCI-H226 lung) of over 20.2 µM, a TGI (NCI-H226 lung) of over 100 µM and a GI50 (MCF7 breast) of 3.78 µM. The TGI (MCF7 breast) was over 100 µM, the GI50 (OVCAR-5 ovarian) was over 100 µM and the TGI (OVCAR-5 ovarian) was over 100 µM. For the same compound, the GI50 (DU-145 prostate) was over 100 µM, the TGI (DU-145 prostate) was over 100 µM and the GI50 (M14 melanoma) was over 100 µM. It also gave a TGI (M14 melanoma) of over 100 µM, a GI50 (SW-620 colon) of 2.4 µM and a GI50 (SR leukemia) of 1.06 µM. The GI50 (PC-3 prostate) was over 21.9 µM, the TGI (PC-3 prostate) was over 100 µM and the GI50 (SK-MEL-5 melanoma) was over 100 µM. The TGI (SK-MEL-5 melanoma) was over 100 µM, the GI50 (KM12 colon) was over 100 µM and the TGI (KM12 colon) was over 100 µM. It also gave a GI50 (HOP-62 NSCLC) of over 100 µM, a TGI (HOP-62 NSCLC) of over 100 µM and a GI50 (NCI/ADR-RES ovarian) of over 31.8 µM. For the same compound, the TGI (NCI/ADR-RES ovarian) was over 100 µM, the GI50 (CCRF-CEM leukemia) was 2.92 µM and the TGI (CCRF-CEM leukemia) was over 100 µM. For the same compound, the GI50 (MDA-MB-231 breast) was over 100 µM, the TGI (MDA-MB-231 breast) was over 100 µM and the GI50 (LOX IMVI melanoma) was 2.04 µM. For the same compound, the GI50 (A498 renal) was over 100 µM, the TGI (A498 renal) was over 100 µM and the GI50 (SF-539 CNS) was over 100 µM. For the same compound, the TGI (SF-539 CNS) was over 100 µM, the GI50 (HL-60(TB) leukemia) was 1.65 µM and the TGI (HL-60(TB) leukemia) was 5.57 µM. It also gave a GI50 (ACHN renal) of 1.74 µM, a TGI (ACHN renal) of 3.13 µM and a GI50 (SN12C renal) of 8.51 µM. For the same compound, the TGI (SN12C renal) was over 100 µM, the TGI (HS 578T breast) was over 52.9 µM and the GI50 (SK-OV-3 ovarian) was over 93.5 µM. It also gave a TGI (SK-OV-3 ovarian) of over 100 µM, a GI50 (MOLT-4 leukemia) of 4.61 µM and a TGI (MOLT-4 leukemia) of over 100 µM. The GI50 (OVCAR-8 ovarian) was 6.88 µM, the TGI (OVCAR-8 ovarian) was over 100 µM and the GI50 (NCI-H23 lung) was 3.13 µM. It also gave a TGI (NCI-H23 lung) of over 100 µM, a TGI (UACC-62 melanoma) of over 100 µM and a GI50 (NCI-H522 lung) of 2.27 µM. The GI50 (SF-295 CNS) was over 100 µM, the TGI (SF-295 CNS) was over 100 µM and the GI50 (U251 CNS) was 16.9 µM. The TGI (U251 CNS) was over 100 µM, the GI50 (HCT-15 colon) was 3.95 µM and the TGI (HCT-15 colon) was over 100 µM. The GI50 (IGROV1 ovarian) was over 100 µM, the TGI (IGROV1 ovarian) was over 100 µM and the GI50 (SK-MEL-2 melanoma) was over 21 µM. For the same compound, the TGI (SK-MEL-2 melanoma) was over 100 µM, the GI50 (UO-31 renal) was over 100 µM and the TGI (UO-31 renal) was over 100 µM. It also gave a GI50 (NCI-H460 lung) of over 100 µM, a TGI (NCI-H460 lung) of over 100 µM and a GI50 (HCC-2998 colon) of over 100 µM. It also gave a TGI (HCC-2998 colon) of over 100 µM, a GI50 (K-562 leukemia) of 2.94 µM and a TGI (K-562 leukemia) of over 100 µM. The GI50 (OVCAR-3 ovarian) was over 100 µM, the TGI (OVCAR-3 ovarian) was over 100 µM and the GI50 (BT-549 breast) was 14.1 µM. The TGI (BT-549 breast) was over 100 µM, the GI50 (OVCAR-4 ovarian) was over 100 µM and the TGI (OVCAR-4 ovarian) was over 100 µM. For the same compound, the GI50 (HOP-92 NSCLC) was 6.69 µM, the TGI (HOP-92 NSCLC) was over 100 µM and the GI50 (HCT-116 colon) was 1.53 µM. For the same compound, the TGI (HCT-116 colon) was 2.94 µM.
